Where a name gives a salt, the structure may show the parent alone. Read-outs that look alike come from different tables or passages of the source.
How the values were obtained:
[1] = system: SUDHL10 cells; assay: Induction of caspase-3/7 activity in SUDHL10 cells (Assay 4); assay type: cell-based
Summary of the method: (§1)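 Caspase-3/7 activity measured in DLBCL lines after 3 h compound exposure at 37 °C, following overnight plating; Caspase-Glo 3/7 luminescence read after 1 h at 37 °C. Medium-only background subtracted, values normalized to mean of DMSO-treated cells.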

[2] = system: SUDHL5 cells; assay: Antiproliferation assay SUDHL5 (Assay 7); assay type: cell-based
Summary of the method: (§2)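 Cell proliferation was measured with CellTiter-Glo luminescence after 72 h compound exposure at 37 °C. A day 0 reference plate, read after overnight incubation, set the time-zero value. IC50s were calculated relative to day 0 (CI) and DMSO control (C0) values.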

[3] = biological target: BCL-XL (Homo sapiens (Human), UniProt Q07817); assay: Protein-protein interaction assay BCL-XL/Bad BH3 peptide (BCL-XL assay, TR-FRET); assay type: binding; conditions: read-out: BCL-XL Assay IC50 (median)
Summary of the method: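 Human BCL-XL (aa 1-212, C-terminal His6, E. coli) at 1 nM end concentration, preincubated 10 min at 22 °C with compound (11 concentrations, 0.1 nM–20 μM, duplicates), then biotinylated Bad BH3 peptide (1 nM) added with anti-His-Eu cryptate/streptavidin-XL665. Incubation 1 h at 22 °C then overnight at 4 °C; TR-FRET 665/620 ratio, IC50 from 4-parameter fit.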

[4] = system: SUDHL5 cells; assay: Induction of caspase-3/7 activity in SUDHL5 cells (Assay 4); assay type: cell-based
Summary of the method: as §1

[5] = system: AMO-1 cells; assay: Antiproliferation assay AMO-1 (Assay 7); assay type: cell-based
Summary of the method: as §2

[6] = system: HMC-1-8 cells; assay: Antiproliferation assay HMC-1-8 (Assay 7); assay type: cell-based; conditions: 72 h
Summary of the method: as §2

[7] = caspase-3/7 induction, 3 h; read-out: Caspase SUDHL10 EC50 (median)
[8] = caspase-3/7 induction, 3 h; read-out: Caspase SUDHL5 EC50 (median)
[9] = read-out: Caspase SUDHL10 EC50 (median); caspase-3/7 induction, 3 h
[10] = read-out: Caspase SUDHL5 EC50 (median); caspase-3/7 induction, 3 h
[11] = read-out: Antiproli AMO-1 IC50 median; 72 h, CellTiter-Glo

Chain of BCL-XL (Q07817 1-212): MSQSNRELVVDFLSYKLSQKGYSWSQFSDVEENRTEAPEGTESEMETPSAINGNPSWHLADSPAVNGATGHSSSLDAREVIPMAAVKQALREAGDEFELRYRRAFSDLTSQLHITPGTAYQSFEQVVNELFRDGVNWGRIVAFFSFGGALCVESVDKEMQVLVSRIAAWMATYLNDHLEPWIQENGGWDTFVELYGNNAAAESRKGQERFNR

Row | Compound | EC50 [1, 7] [µM] | IC50 [3] [µM] | EC50 [4, 8] [µM] | EC50 [1, 9] [µM] | EC50 [4, 10] [µM] | IC50 [5, 11] [µM] | also measured
1 | Cc1c2c(nn1C)C(C)OCCCCn1c(C(=O)O)c(CCCOc3cccc4ccccc34)c3cccc-2c31 (single isomer, unassigned; stereoisomer 2) [Example 3, 2,3,15-trimethyl-7-[3-(naphthalen-1-yloxy)propyl]-2,10,11,12,13,15-hexahydropyrazolo[4′,3′:9,10][1,6]oxazacycloundecino[8,7,6-hi]indole-8-carboxylic Acid Trifluoroacetic Acid Salt (Stereoisomer 2)] | – | > 20 | – | > 33 | > 33 | – | IC50 ([2]; read-out: Antiproli SUDHL5 IC50 (median); 72 h, CellTiter-Glo): 20 µM
2 | CCc1c2c(nn1C)C(C(F)(F)F)OCCCCn1c(C(=O)O)c(CCCOc3cccc4ccccc34)c3ccc(Cl)c-2c31 (single isomer, unassigned; enantiomer 1) [Example 33, (+)-4-chloro-3-ethyl-2-methyl-7-{3-[(naphthalen-1-yl)oxy]propyl}-15-(trifluoromethyl)-2,10,11,12,13,15-hexahydropyrazolo[4′,3′:9,10][1,6]oxazacycloundecino[8,7,6-hi]indole-8-carboxylic Acid—N-ethylethanamine Salt (Enantiomer 1)] | – | > 20 | – | 4.5 | 1.8 | 6.96 | IC50 ([6]; read-out: Antiproli HMC-1-8 IC50 median, 72 h, CellTiter-Glo): 15 µM
3 | Cc1c2c(nn1C)C(C)OCCCCn1c(C(=O)O)c(CCCOc3cccc4ccccc34)c3cccc-2c31 (racemic) [Example 1, (rac)-2,3,15-trimethyl-7-[3-(naphthalen-1-yloxy)propyl]-2,10,11,12,13,15-hexahydropyrazolo[4′,3′:9,10][1,6]oxazacycloundecino[8,7,6-hi]indole-8-carboxylic Acid (Mixture of Stereoisomers)] | – | > 20 | – | – | – | – | EC50 ([1]; Homo sapiens, SU-DHL10, 3 h, caspase-3/7 induction, 3 h; read-out: Caspase SUDHL10 EC50 (median)): 5.9 µM; IC50 ([2]; Homo sapiens, SU-DHL-5, 72 h, 72 h, CellTiter-Glo; read-out: Antiproli SUDHL5 IC50 (median)): 1.5 µM; EC50 ([4]; Homo sapiens, SU-DHL-5, 3 h, caspase-3/7 induction, 3 h; read-out: Caspase SUDHL5 EC50 (median)): 2.3 µM
4 | CCc1c2c(nn1C)C(CCO)OCCCCn1c(C(=O)O)c(CCCOc3cccc4cc(F)ccc34)c3ccc(Cl)c-2c31 (single isomer, unassigned; enantiomer 2) [Example 46, (−)-4-chloro-3-ethyl-7-{3-[(6-fluoronaphthalen-1-yl)oxy]propyl}-15-(2-hydroxyethyl)-2-methyl-2,10,11,12,13,15-hexahydropyrazolo[4′,3′:9,10][1,6]oxazacycloundecino[8,7,6-hi]indole-8-carboxylic Acid (Enantiomer 2)] | 4 | > 20 | 4.9 | – | – | – | IC50 ([5]; 72 h, CellTiter-Glo; read-out: Antiproli AMO-1 IC50 median): 8.65 µM; IC50 ([6]; CellTiter-Glo, read-out: Antiproli HMC-1-8 IC50 median): > 33 µM

More lines, main results first:

Row | EC50 [1, 7] [µM] | IC50 [3] [µM] | EC50 [4, 8] [µM] | EC50 [1, 9] [µM] | EC50 [4, 10] [µM] | Compound | IC50 [5, 11] [µM] | also measured
5 | 31 | > 20 | 22 | – | – | Cc1c2c(nn1C)C(CCN1CCOCC1)OCCCCn1c(C(=O)O)c(CCCOc3cccc4ccccc34)c3cccc-2c31 (single isomer, unassigned; stereoisomer 2) [Example 6, 2,3-dimethyl-15-[2-(morpholin-4-yl)ethyl]-7-[3-(naphthalen-1-yloxy)propyl]-2,10,11,12,13,15-hexahydropyrazolo[4′,3′:9,10][1,6]oxazacycloundecino[8,7,6-hi]indole-8-carboxylic Acid (Stereoisomer 2)] | – | IC50 ([2]; 72 h, CellTiter-Glo; read-out: Antiproli SUDHL5 IC50 (median)): 8.2 µM
6 | – | 13.8 | – | 27 | > 33 | Cc1c2c(nn1C)C(C1CC1)OCCCCn1c(C(=O)O)c(CCCOc3cccc4ccccc34)c3ccc(Cl)c-2c31 (single isomer, unassigned; enantiomer 2) [Example 36, (−)-4-chloro-15-cyclopropyl-2,3-dimethyl-7-{3-[(naphthalen-1-yl)oxy]propyl}-2,10,11,12,13,15-hexahydropyrazolo[4′,3′:9,10][1,6]oxazacycloundecino[8,7,6-hi]indole-8-carboxylic Acid N-ethylethanamine Salt (Enantiomer 2)] | 15.8 | IC50 ([6]; read-out: Antiproli HMC-1-8 IC50 median, CellTiter-Glo): 19 µM
